This is an account of results in patent EP0471756B1, “SACCHARIN DERIVATIVES USEFUL AS PROTEOLYTIC ENZYME INHIBITORS AND PREPARATION THEREOF” (priority 1989, dated 1990).

This assay has as its target T1, human leukocyte elastase (HLE) (Homo sapiens, UniProt P08246).
T1 sequence (P08246 30-267): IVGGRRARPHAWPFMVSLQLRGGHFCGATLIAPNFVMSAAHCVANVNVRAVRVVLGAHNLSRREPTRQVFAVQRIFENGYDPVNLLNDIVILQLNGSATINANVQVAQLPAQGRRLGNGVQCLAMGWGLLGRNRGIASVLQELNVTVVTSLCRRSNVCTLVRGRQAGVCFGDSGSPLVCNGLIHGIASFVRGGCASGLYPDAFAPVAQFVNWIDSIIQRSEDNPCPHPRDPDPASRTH
The assay can be described thus: Inactivation of human leukocyte elastase: kon measured, Ki* = koff/kon calculated. The assay is classed as biochemical. The note with it: for kinact/KI: read-out: 10^-3 x kon; for Ki: Ki* = koff/kon, not a truly reversible inhibition constant.

Where [1] appears, read: Elastase, rate of inactivation kon = kobs/[I], value is kon x 10^-3.

Where two headings read alike, the source gives them in different places.

Method: Thus, instead of measuring a Ki, a Ki* is calculated which is defined as the ratio of the koff/kon, the rate of reactivation of the enzyme to the rate of inactivation of the enzyme. The values of koff and kon are measured and Ki* is then calculated.
The rate of inactivation, kon, of enzymatic activity was determined for the compounds tested by measuring the enzyme activity of an aliquot of the respective enzyme as a function of time after addition of the test compound. […] The rate of inactivation is then equal to kon =(kobs)/([I]) [formula] where [I] is the concentration of the inhibiting compound.
The reactivation constant, koff, is similarly determined and the inhibition constant, Ki*, is then calculated as Ki * = koff /kon [formula]

As for `O=C1c2c(Cl)cccc2S(=O)(=O)N1CSc1nnnn1-c1ccccc1` [Example 4, 4-chloro-2-(1-phenyl-1H-tetrazol-5-ylthiomethyl) saccharin], under setting [1], the kinact/KI is 20000 M⁻¹ s⁻¹. Still for that read-out and setting: under `CCCCCCC(=O)Nc1cccc(-n2nnnc2SCN2C(=O)c3ccccc3S2(=O)=O)c1` [Example 7, 2-[1-(3-heptanamidophenyl)-1H-tetrazol-5-ylthiomethyl]saccharin] stands 5200 M⁻¹ s⁻¹. For `O=C1c2ccccc2S(=O)(=O)N1CSc1nnnn1C1CCCCC1` [Example 9, 2-(1-cyclohexyl-1H-tetrazol-5-ylthiomethyl)saccharin], the Ki (Elastase) is 32 nM. Also, under setting [1], the kinact/KI is 2500 M⁻¹ s⁻¹. As for `O=C1c2cc([N+](=O)[O-])ccc2S(=O)(=O)N1CSc1nnnn1-c1ccccc1` [Example 11, 5-nitro-2-(1-phenyl-1H-tetrazol-5-ylthiomethyl)saccharin], the kinact/KI is 4600 M⁻¹ s⁻¹.

On to `O=C1c2ccccc2S(=O)(=O)N1COc1ccc([N+](=O)[O-])cc1` [Example 15, 2-(4-nitrophenoxymethyl)saccharin], for which, under setting [1], the kinact/KI is 3200 M⁻¹ s⁻¹. Turning to `COC(=O)C(Sc1nnnn1-c1ccccc1)N1C(=O)c2ccccc2S1(=O)=O` (centres unmarked) [Example 17, methyl 2-(1-phenyl-1H-tetrazol-5-ylthio)2-(2-saccharinyl)acetate], the kinact/KI under setting [1] was 2900 M⁻¹ s⁻¹.

Turning to `O=C1c2c(Br)cccc2S(=O)(=O)N1CCl` [Example 21, 2-chloromethyl-4-bromosaccharin], under setting [1], the kinact/KI is 950000 M⁻¹ s⁻¹. In the case of `COc1cccc2c1C(=O)N(CCl)S2(=O)=O` [Example 22A, 2-chloromethyl-4-methoxysaccharin], the kinact/KI under setting [1] was 12400 M⁻¹ s⁻¹. Still for that read-out and setting: under `CCC(C)c1cccc2c1C(=O)N(CCl)S2(=O)=O` (centres unmarked) [Example 22B, 2-chloromethyl-4-sec.-butylsaccharin] stands 2400 M⁻¹ s⁻¹; under `CCC(CC)c1cccc2c1C(=O)N(CCl)S2(=O)=O` [Example 22C, 2-chloromethyl-4-(3-pentyl)saccharin], 105000 M⁻¹ s⁻¹; under `O=C1c2cccc(Cl)c2S(=O)(=O)N1CCl` [Example 22D], 75800 M⁻¹ s⁻¹.

Turning to `CC(C)c1cccc2c1C(=O)N(CCl)S2(=O)=O` [Example 22E], the kinact/KI under setting [1] was 4700 M⁻¹ s⁻¹. Still for that read-out and setting: as for `COc1ccc2c(c1OC)C(=O)N(CCl)S2(=O)=O` [Example 22F], the figure is 20000 M⁻¹ s⁻¹; as for `COC(=O)c1cccc2c1C(=O)N(CCl)S2(=O)=O` [Example 22G], 3000 M⁻¹ s⁻¹. Consider `CCOc1cccc2c1C(=O)N(CCl)S2(=O)=O` [Example 22H], for which the kinact/KI under setting [1] is 25000 M⁻¹ s⁻¹. Consider `O=C1c2ccccc2S(=O)(=O)N1CF` [Example 27, 2-fluoromethylsaccharin], for which, under setting [1], the kinact/KI was 7500 M⁻¹ s⁻¹. For `CCc1cccc2c1C(=O)N(CCl)S2(=O)=O` [Example 28], the “10^-3 x kon” value under setting [1] is recorded as 50.7 M^-1 sec^-1. Consider `Cc1ccc(C)c2c1C(=O)N(CCl)S2(=O)=O` [Example 29, 2-chloromethyl-4,7-dimethylsaccharin], for which, under setting [1], the kinact/KI was 1100 M⁻¹ s⁻¹. Still for that read-out and setting: as for `O=C(O)c1cccc(-n2nnn(CN3C(=O)c4ccccc4S3(=O)=O)c2=S)c1` [Example 30-O], the figure is 30 M⁻¹ s⁻¹; as for `Cc1nnc(SCN2C(=O)c3ccccc3S2(=O)=O)s1` [Example 30AB], 2800 M⁻¹ s⁻¹.

As to `Cn1cnnc1SCN1C(=O)c2ccccc2S1(=O)=O` [Example 30AC], under “Elastase”, the Ki is 246 nM. The kinact/KI under setting [1] was 190 M⁻¹ s⁻¹. In the case of `CSc1nn(CN2C(=O)c3ccccc3S2(=O)=O)c(=S)s1` [Example 30AD], under setting [1], the kinact/KI was 7000 M⁻¹ s⁻¹. In the case of `O=C1c2ccccc2S(=O)(=O)N1CSc1nc(-c2ccccc2)ns1` [Example 30AF], the “10^-3 x kon” value under setting [1] is reported as 4.2 M^-1 sec^-1. Turning to `O=C1c2cccc(Cl)c2S(=O)(=O)N1CSc1nnnn1-c1ccccc1` [Example 30AG], the Ki (Elastase) was over 1000 nM.

For the compound `O=C1c2ccccc2S(=O)(=O)N1CSc1nnc(S)s1` [Example 30AH, 2-(5-mercapto-1,3,4-thiadiazol-2-ylthiomethyl)saccharin], the kinact/KI under setting [1] was 1100 M⁻¹ s⁻¹. Turning to `CC(C)c1cccc2c1C(=O)N(Cn1nnn(-c3ccccc3)c1=S)S2(=O)=O` [Example 30AJ], the kinact/KI under setting [1] was 1800 M⁻¹ s⁻¹. On the same count and under the same terms, under `Cc1nnc(SCN2C(=O)c3c(C(C)C)cccc3S2(=O)=O)s1` [Example 30AM] stands 12300 M⁻¹ s⁻¹. Still for that read-out and setting: under `CC(C)c1cccc2c1C(=O)N(CSc1nnnn1C)S2(=O)=O` [Example 30AN] stands 19000 M⁻¹ s⁻¹. In the case of `CCOC(=O)Cn1nnnc1SCN1C(=O)c2ccccc2S1(=O)=O` [Example 30AP], the kinact/KI under setting [1] is 1300 M⁻¹ s⁻¹.

As to `O=C1c2ccccc2S(=O)(=O)N1CSc1nnnn1CCO` [Example 30AQ, 2-[1-(2-hydroxyethyl)-1H-tetrazol-5-ylthiomethyl]saccharin], under setting [1], the kinact/KI is 900 M⁻¹ s⁻¹. The same measure, in the same setting: under `COC(=O)c1cn(-c2ccccc2)c(SCN2C(=O)c3ccccc3S2(=O)=O)n1` [Example 30AR] stands 300 M⁻¹ s⁻¹. Still for that read-out and setting: as for `CN(C)C(=O)Cn1nnnc1SCN1C(=O)c2ccccc2S1(=O)=O` [Example 30AS], the figure is 1700 M⁻¹ s⁻¹. For `CCOc1cccc2c1C(=O)N(CSc1nnnn1-c1ccccc1)S2(=O)=O` [Example 30AT], where the note is “Elastase”, the Ki is 3 nM. Further, the kinact/KI under setting [1] is 45300 M⁻¹ s⁻¹.

For `CC(C)Oc1cccc2c1C(=O)N(CSc1nnnn1-c1ccccc1)S2(=O)=O` [Example 30AU], the Ki (Elastase) was 17.5 nM. Further, under setting [1], the kinact/KI was 8900 M⁻¹ s⁻¹. As for `CCc1cccc2c1C(=O)N(CSc1nnnn1CC(=O)N(C)C)S2(=O)=O` [Example 30AV], the kinact/KI under setting [1] was 7600 M⁻¹ s⁻¹.

On to `CC(C)c1cccc2c1C(=O)N(CSc1nnnn1CC(=O)N(C)C)S2(=O)=O` [Example 30AW], for which the kinact/KI under setting [1] was 30000 M⁻¹ s⁻¹. Consider `CCOc1cccc2c1C(=O)N(CSc1nnnn1CC(=O)N(C)C)S2(=O)=O` [Example 30AX], for which, under setting [1], the kinact/KI is 7500 M⁻¹ s⁻¹. As to `O=C1c2ccccc2S(=O)(=O)N1COc1c(Cl)cccc1Cl` [Example 30BB], the Ki (Elastase) was over 500 nM. Consider `O=C1c2c(-c3ccccc3)cccc2S(=O)(=O)N1CSc1nnnn1-c1ccccc1` [Example 30BC], for which, under “Elastase”, the Ki is 80 nM. The kinact/KI under setting [1] was 5800 M⁻¹ s⁻¹. With `O=C1c2ccccc2S(=O)(=O)N1CSc1nc2ccc([N+](=O)[O-])cc2s1` [Example 30BD], under setting [1], the kinact/KI was 11700 M⁻¹ s⁻¹. As for `O=C1c2ccccc2S(=O)(=O)N1CSc1nc2ccc([N+](=O)[O-])cc2o1` [Example 30BE], the kinact/KI under setting [1] is 7400 M⁻¹ s⁻¹. As for `O=C1c2ccccc2C(=O)N1CN1C(=O)c2ccccc2S1(=O)=O` [Example 30BF], under setting [1], the “10^-3 x kon” value is 0.02 M^-1 sec^-1.

For the compound `O=C1c2ccccc2S(=O)(=O)N1CSc1nnnn1CCN1CCOCC1` [Example 30BG], the kinact/KI under setting [1] was 1700 M⁻¹ s⁻¹. As for `O=C1c2ccccc2S(=O)(=O)N1Cn1nnn(-c2ccccc2)c1=O` [Example 30BH], where the note is “Elastase”, the Ki is over 10000 nM.

Consider `CC(C)c1cccc2c1C(=O)N(CSc1nnnn1CCN1CCOCC1)S2(=O)=O` [Example 30BI], for which the kinact/KI under setting [1] was 39000 M⁻¹ s⁻¹. Take `Nc1cccc(-n2nnnc2SCN2C(=O)c3ccccc3S2(=O)=O)c1` [Example 30C, 2-[1-(3-aminophenyl)-1H-tetrazol-5-ylthiomethyl]saccharin]: under setting [1], the kinact/KI was 2500 M⁻¹ s⁻¹. The same measure, in the same setting: as for `O=C(O)c1ccc(-n2nnnc2SCN2C(=O)c3ccccc3S2(=O)=O)cc1` [Example 30D], the figure is 800 M⁻¹ s⁻¹; as for `COC(=O)c1cc(C(=O)OC)cc(-n2nnnc2SCN2C(=O)c3ccccc3S2(=O)=O)c1` [Example 30E], 7300 M⁻¹ s⁻¹.
